Where two headings read alike, the source gives them in different places.
Key:
Type 3 Phosphodiesterase = experiment: Phosphodiesterase (PDE) Inhibition, Type 3 Phosphodiesterase; assay type: biochemical, bovine (coronary arteries); conditions: Type 3 PDE, at 10^-5 M, substrate 3H-cAMP 1.0 μM
Procedure, shortened: (§1)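 PDEs isolated from bovine coronary artery by DEAE-cellulose chromatography, fractions typed by cAMP/cGMP hydrolysis ± calmodulin/CaCl2. Assay in 40 mM Tris-HCl (pH 8.0), 5 mM MgCl, 4 mM 2-mercaptoethanol with 1.0 μM ^3H-cyclic AMP or ^3H-cyclic GMP; final DMSO 1.25% (smooth muscle) or 2.5% (cardiac, platelet).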

Type 1 Phosphodiesterase = experiment: Phosphodiesterase (PDE) Inhibition, Type 1 Phosphodiesterase; assay type: biochemical, bovine (coronary arteries); conditions: Type 1 PDE, at 10^-5 M
Procedure, shortened: as §1

[1] = tested on: pentobarbital-anesthetized dog; experiment: In Vivo Myocardial Inotropic Activity in Anesthetized Dog (CVAD); parameters: species or system dog (adult mongrel); conditions: for change in vivo at 0.1 mg/kg / change in vivo at 0.31 mg/kg / change in vivo at 1 mg/kg / change in vivo at 3.1 mg/kg / change in vivo at 10 mg/kg: Canis lupus familiaris, iv; for change in vivo at 0.1 mg/kg: 0.10 mg/kg IV; for change in vivo at 0.31 mg/kg: 0.31 mg/kg IV; for change in vivo at 1 mg/kg: 1.00 mg/kg IV; for change in vivo at 3.1 mg/kg: 3.10 mg/kg IV; for change in vivo at 10 mg/kg: 10.00 mg/kg IV
Procedure, shortened: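 Adult mongrel dogs under pentobarbital anaesthesia (35 mg/kg IV, then 3.5 mg/kg/hour infusion), breathing spontaneously; increasing compound doses given IV via femoral vein, each over one minute. LV dP/dt max, heart rate (lead II ECG) and aortic pressure recorded by catheter transducers against ≥30 min control baseline; vehicle controls as needed.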

adenosine A1 receptor = target: T1, adenosine A1 receptor (Rattus norvegicus, UniProt P25099); experiment: Adenosine Receptor Binding - A1 Receptor Affinity (RBA1), [3H]-N6-cyclohexyladenosine displacement; conditions: [3H]-CHA 1.0 nM, rat brain membranes, 25° C., one hour; read-out: RBA-1, IC50 for adenosine A1 receptor affinity
T1 construct: Whole brain minus cerebellum and brainstem from male Long Evans rats; from tissue; host or cells: whole brain minus cerebellum and brainstem, male Long Evans rats (membranes)
T1 sequence (P25099 1-326): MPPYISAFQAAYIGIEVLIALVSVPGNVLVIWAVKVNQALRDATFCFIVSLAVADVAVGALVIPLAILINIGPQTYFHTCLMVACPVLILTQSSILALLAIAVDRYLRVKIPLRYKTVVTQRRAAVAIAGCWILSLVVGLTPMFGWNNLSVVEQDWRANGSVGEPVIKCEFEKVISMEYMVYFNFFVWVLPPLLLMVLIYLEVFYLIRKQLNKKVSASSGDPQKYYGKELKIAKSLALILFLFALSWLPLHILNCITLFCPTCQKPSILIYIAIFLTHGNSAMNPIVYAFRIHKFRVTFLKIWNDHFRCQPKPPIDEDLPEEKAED
Procedure, shortened: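 Rat forebrain membranes (whole brain minus cerebellum and brainstem, male Long Evans) washed in 0.05 M Tris-HCl pH 7.7, used at 20 mg/ml wet tissue. Bound [3H]-N6-cyclohexyladenosine measured by filtration and scintillation counting; Hill coefficient by log-plot regression, Bmax from Scatchard plot.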

[2] = read-out: Percent Change Heart Rate
[3] = read-out: Percent Change Myocardial Contractility
[4] = intravenously at about 0.01 to 0.31 mg/kg

% Inhibition of hydrolysis of 3H-cAMP (Type 3 Phosphodiesterase): 23%
% Inhibition of hydrolysis of 3H-cAMP (Type 1 Phosphodiesterase; substrate 3H-cAMP 1.0 μM): 80%
% Inhibition of hydrolysis of 3H-cGMP (Type 1 Phosphodiesterase; substrate 3H-cGMP 1.0 μM): 71%
IC50 (adenosine A1 receptor): 13.1 µM
Structure (SMILES): Cc1nn(C)c2c(=O)[nH]c(Cc3ccccc3)nc12 [Example 1, 1,3-Dimethyl-5-benzylpyrazolo[4,3-d]pyrimidine-7-one]
change in vivo at 0.1 mg/kg [1, 2]: 2%
change in vivo at 0.1 mg/kg [1, 3]: 8%
change in vivo at 0.31 mg/kg [1, 2]: 3%
change in vivo at 0.31 mg/kg [1, 3]: 12%
change in vivo at 1 mg/kg [1, 2]: 6%
change in vivo at 1 mg/kg [1, 3]: 23%
change in vivo at 3.1 mg/kg [1, 2]: 14%
change in vivo at 3.1 mg/kg [1, 3]: 42%
change in vivo at 10 mg/kg [1, 2]: 38%
change in vivo at 10 mg/kg [1, 3]: 95%
blood pressure (in words) [1, 4]: a moderate reduction in blood pressure
cardiac contractility (in words) [1, 4]: dose related significant increases in cardiac contractility
heart rate (in words) [1, 4]: only low or minimal changes in heart rate

— patent US4666908A, “5-Substituted pyrazolo[4,3-d]pyrimidine-7-ones and methods of use” (Warner-Lambert Company, priority 1985, dated 1987)
